US8569501B2, “Semiconductor materials and methods of preparation and use thereof” (BASF SE, priority 2008, dated 2013)
In brackets after ≈: the same amount, converted by molar mass.

Experiment: Solubility in organic solvents
Format: physicochemical
Conditions: in dichlorobenzene at 60° C.
From the text: All of the mono-bromo mono-cyano perylenes and dimeric perylenes are sufficiently soluble for processing in conventional organic solvents such as chloroform, xylene, dichlorobenzene, and anisole.

| Solubility | Structure (SMILES) |
| --- | --- |
| 5.5 mg/mL (≈ 3.81 mM) | CCCCC(CC)CN1C(=O)c2ccc3c4c(-c5ccc(-c6ccc(-c7cc8c9c(ccc%10c%11c(C#N)cc%12c%13c(ccc(c7c9%10)c%13%11)C(=O)N(CC(CC)CCCC)C%12=O)C(=O)N(CC(CC)CCCC)C8=O)s6)s5)cc5c6c(ccc(c7c(C#N)cc(c2c37)C1=O)c64)C(=O)N(CC(CC)CCCC)C5=O (stereo not drawn) [BPDI(2EH)-BT, 5,5′-bis-[N,N′-bis(2-ethylhexyl)-1-cyanoperylene-3,4:9,10-bis(dicarboxiimide)-7-yl]-2,2′-bithiophene] |
| 7.8 mg/mL (≈ 5.41 mM) | CCCCCCCCN1C(=O)c2ccc3c4c(-c5ccc(-c6ccc(-c7cc8c9c(ccc%10c%11c(C#N)cc%12c%13c(ccc(c7c9%10)c%13%11)C(=O)N(CCCCCCCC)C%12=O)C(=O)N(CCCCCCCC)C8=O)s6)s5)cc5c6c(ccc(c7c(C#N)cc(c2c37)C1=O)c64)C(=O)N(CCCCCCCC)C5=O [BPDI(8)-BT, 5,5′-bis-[N,N′-bisoctyl-1-cyanoperylene-3,4:9,10-bis(dicarboxiimide)-7-yl]-2,2′-bithiophene] |
| 33.9 mg/mL (≈ 25.5 mM) | CCCCC(C)N1C(=O)c2ccc3c4c(-c5ccc(-c6ccc(-c7cc8c9c(ccc%10c%11c(C#N)cc%12c%13c(ccc(c7c9%10)c%13%11)C(=O)N(C(C)CCCC)C%12=O)C(=O)N(C(C)CCCC)C8=O)s6)s5)cc5c6c(ccc(c7c(C#N)cc(c2c37)C1=O)c64)C(=O)N(C(C)CCCC)C5=O (stereo not drawn) [BPDI(1MP)-BT, 5,5′-bis-[N,N′-bis(1-methylpentyl)-1-cyanoperylene-3,4:9,10-bis(dicarboxiimide)-7-yl]-2,2′-bithiophene] |
